In patent US20120251465A1, “FLAVOR COMPOSITION CONTAINING FLAVONE GLYCOSIDES” (priority 2011, published 2012):

Assay: Warming compositions evaluated by a trained sensory panel (intensity scale 0 to 5)
Conditions: flavone glycoside 1 ppm combined with capsicum oleoresin 2 ppm; for Enhancement of the warming effect of capsicum oleoresin: versus capsicum oleoresin 2 ppm alone; for Flavor Intensity: scale 0 to 5 (0=none, 1=minimal, 3=moderate, 5=intense)

SMILES	Enhancement of the warming effect of capsicum oleoresin	Flavor Intensity
O=c1cc(-c2ccc(O)cc2)oc2cc(OC3OC(CO)C(O)C(O)C3O)cc(O)c12 (centres unmarked) [Formula II, apigenin 7-O-glucoside]	enhanced	2.5
COc1ccc(-c2cc(=O)c3c(O)cc(OC4OC(CO)C(O)C(O)C4O)cc3o2)cc1 (centres unmarked) [Formula III, acacetin 7-O-glucoside]	enhanced	2.5
CC1OC(OCC2OC(Oc3cc(O)c4c(=O)cc(-c5ccc(O)c(O)c5)oc4c3)C(O)C(O)C2O)C(O)C(O)C1O (centres unmarked) [Formula IV, luteolin 7-O-rutinoside]	enhanced	2.5
COc1ccc(-c2cc(=O)c3c(O)cc(OC4OC(COC5OC(C)C(O)C(O)C5O)C(O)C(O)C4O)cc3o2)cc1 (centres unmarked) [Formula V, acacetin 7-O-rutinoside]	enhanced	3.5
